{"source": "patent EP3041353B1", "about": "“COMPOSITIONS COMPRISING BACTERIOSTATIC AGENTS AND BRILLIANT BLUE G” (priority 2013, dated 2015)", "test_system": "HCE-Zellen", "format": "cell-based, human", "experimental": "Die Erfindung wird im Folgenden rein zu Veranschaulichungszwecken anhand der angehängten Figuren und von Ausführungsbeispielen näher erläutert. • Figur 1 Effekt von 0,025% BBG auf die Toxizität von unterschiedlichen Konzentrationen (in Gew.-%) von Benzalkoniumchlorid (BAK) auf HCE-Zellen (HCE = human corneal epithelium, Menschliche Hornhautepithelzellen) bei verschiedenen Einwirkdauern (5, 30, 60 min). Oben: BAK ohne BBG. Unten: BAK mit BBG. Inkubationsmedium: Phosphat-gepufferte Kochsalzlösung (PBS). • Figur 2 Effekt von BBG (in Gew.-%) in unterschiedlichen Konzentrationen auf die Toxizität von BAK bei 0,003% (oben) und 0,008% (unten). PBS = Phosphat-gepufferte Kochsalzlösung; BBS = balanced salt solution (ausgeglichene Salzlösung). • Figur 3 Effekt von BBG (0,025 Gew.-%) auf die Toxizität von Octenidindihydrochlorid (Oct) in unterschiedlichen Konzentrationen (in Gew.-%) nach 5 min Inkubation (oben) und 30 min Inkubation (unten). Octenidin alone = Octenidin allein (ohne BBG). • Figur 4 Effekt von BBG (0,025 %) auf die Toxizität von Cetylpyridiniumchlorid (CPC) in unterschiedlichen Konzentrationen (in Gew.-%) nach 5 min Inkubation (oben) und 30 min Inkubation (unten). CPC alone = Cetylpyridiniumchlorid allein (ohne BBG). • Figur 5 Effekt von BBG (0,025 %) auf die Toxizität von Chlorhexidin (CHex) in Form von Chlorhexidindigluconat in unterschiedlichen Konzentrationen (in Gew.-%) nach 5 min Inkubation (oben) und 30 min Inkubation (unten). Chlorhexidin alone = Chlorhexidin allein (ohne BBG)\nFigur 1 zeigt die Wirkung von BBG 0,025% Gew.-% auf die Toxizität von unterschiedlichen Konzentrationen (in Gew.-%) von Benzalkoniumchlorid (BAK) auf HCE-Zellen (HCE = human corneal epithelium, Menschliche Hornhautepithelzellen) bei verschiedenen Einwirkdauern (5, 30, 60 min).\nFigur 2 zeigt die Wirkung von BBG (in Gew.-%) in unterschiedlichen Konzentrationen und zwei unterschiedlichen Medien (PBS und BSS) auf die Toxizität von BAK bei 0,003% (oben) und 0,008% (unten) bei HCE-Zellen. Die Schutzwirkung von BBG bei niedrigeren BAK-Konzentrationen setzt schon bei 0,003% BBG ein. Bei höheren BAK-Konzentrationen sind 0,015% notwendig.\nFigur 3 zeigt die Wirkung von BBG (0,025 Gew.-%) auf die Toxizität von Octenidin (Oct) Form von Octenidindihydrochlorid in unterschiedlichen Konzentrationen (in Gew.-%) nach 5 min Inkubation (oben) und 30 min Inkubation (unten). Octenidin alone = Octenidin allein (ohne BBG). […] BBG (0,025 Gew.-%) kann diesen Effekt bei 5 min Inkubation (links) bis zu einer Oct-Konzentration von 0,01% (der höchsten getesteten Konzentration) verhindern. Bei 30 min Einwirkzeit (rechts) ist erst ab 0,009 Gew.-% Oct der Schutz nicht mehr maximal.\nDie Figuren 4 und 5 zeigen die Wirkung von BBG (0,025 Gew.-%) auf die Toxizität von Cetylpyridiniumchlorid (CPC, Fig. 4) und Chlorhexidin (CHex in Form von Chlorhexidindigluconat, Fig. 5) in unterschiedlichen Konzentrationen (in Gew.-%) nach 5 min Inkubation (jeweils oben) und 30 min Inkubation (jeweils unten)."}
{"smiles": "CCOc1ccc(Nc2ccc(C(=C3C=CC(=[N+](CC)Cc4cccc(S(=O)(=O)[O-])c4)C=C3C)c3ccc(N(CC)Cc4cccc(S(=O)(=O)O)c4)cc3C)cc2)cc1", "note": "[BBG, Brillantblau G]", "values": [{"measurement": "Überleben", "value": "leichten Erniedrigung des Überlebens"}, {"measurement": "Schutzwirkung (=erhöhtes Zellüberleben)", "setting": "BBG 0,025% with BAK, 60 min Einwirkzeit, PBS (Figur 1)", "value": "noch deutlich vorhanden"}, {"measurement": "CPC-Konzentration, bis zu der der Schutzeffekt gegeben ist", "setting": "BBG 0,025 Gew.-% with CPC, 5 min and also 30 min Einwirkzeit (Figur 4)", "value": "~0,02%"}, {"measurement": "Schutzeffekt", "setting": "BBG 0,025 Gew.-% with Chlorhexidin (Chlorhexidindigluconat), 5 and 30 min, compared with the CPC result (Figur 5)", "value": "Ähnliches gilt"}, {"measurement": "Oct-Konzentration, bis zu der BBG den zellschädigenden Effekt verhindert", "setting": "BBG 0,025 Gew.-%, 5 min Inkubation, highest Oct concentration tested (Figur 3)", "value": "≤ 0,01%"}, {"measurement": "Oct-Konzentration, ab der der Schutz nicht mehr maximal ist", "setting": "BBG 0,025 Gew.-%, 30 min Einwirkzeit (Figur 3)", "value": "≥ 0,009 Gew.-%"}, {"measurement": "Schutzwirkung (zelltoxische Wirkung der Bakteriostatika bei gleichzeitiger Gabe)", "setting": "dye given together with the bacteriostatic agent", "value": "stark reduziert"}, {"measurement": "BBG-Konzentration, die für die Schutzwirkung notwendig ist", "setting": "höhere BAK-Konzentration (BAK 0,008%), PBS and BSS (Figur 2)", "value": "0,015%"}, {"measurement": "BBG-Konzentration, bei der die Schutzwirkung einsetzt", "setting": "niedrigere BAK-Konzentration (BAK 0,003%), PBS and BSS (Figur 2)", "value": "0,003%"}]}
